Like-named read-outs stand apart in the source and are kept apart here. Where a SMILES comes first, the peptide text is derived from it. The star is where a group is joined. Cbz = O=C(OCc1ccccc1)*
Key:
HCT-15 cells [1] = assay: GFP-L7a expression in treated HCT-15 cells (FIG. 8); assay type: cell-based, human
Description: FIG. 8 contains pictures of cells. HCT-15 cells, grown on 35 mm glass bottom dishes, were transfected with the GFP-L7a vector pCMV6-AC-GFP to express GFP-L7a protein.

HCT-15 cells [2] = assay: Cell survival assay using MTT (toxicity study, FIG. 7); details: for toxicity (cell survival, MTT): at the applied concentrations, compounds dissolved in DMSO; for cellular proliferation: prolonged 24-hour treatments
Description: (§1) To further assess protein biosynthesis in the perinuclear area and ribosome biogenesis, several chemical agents were tested on cellular growth and survival.
(§2) All the tested compounds were dissolved in dimethylsulfoxide (DMSO).
(§3) The human colorectal adenocarcinoma cell lines: HCT-15 was purchased from ATCC. Cultures of cells maintained in DMEM/F12 medium containing 10% FBS and antibiotics, at 37° C. with 5% CO2. For cell treatments, cells were grown at 80% confluence in complete medium.

HCT-15 cells [3] = tested on: HCT-15 cells
Description: as §1, §2, §3

[4] = HCT-15 cells transfected with GFP-L7a vector pCMV6-AC-GFP

Compound	nucleolar hypertrophy (GFP-L7a) (HCT-15 cells [1]; [4])	perinuclear protein synthesis (GFP-L7a) (HCT-15 cells [1]; [4])	toxicity (cell survival, MTT) (HCT-15 cells [2])	cellular proliferation (HCT-15 cells [2])	toxicity (cell survival, MTT) (HCT-15 cells [3])	perinuclear protein synthesis (GFP-L7a) (HCT-15 cells [1])
COC1=C2C[C@@H](C)C[C@H](OC)[C@H](O)[C@@H](C)/C=C(\C)[C@H](OC(N)=O)[C@@H](OC)/C=C\C=C(/C)C(=O)NC(=CC1=O)C2=O [Geldanamycin, (4E,6Z,8S,9S,10E,12S,13R,14S,16R)-13-hydroxy-8,14,19-trimethoxy-4,10,12,16-tetramethyl-3,20,22-trioxo-2-azabicyclo[16.3.1]docosa-1(21),4,6,10,18-pentaen-9-yl carbamate]	induced	induced	no toxicity	inhibited cellular proliferation		
CCc1cncnc1N1CCN(Cc2nc3cc(C(F)(F)F)ccc3[nH]2)CC1 [PF4708671, 2-((4-(5-Ethylpyrimidin-4-yl)piperazin-1-yl)methyl)-5-(trifluoromethyl)-1H-benzo[d]imidazole]	induced	induced	no toxicity			
C=C(C)[C@H]1Cc2c(ccc3c2O[C@@H]2COc4cc(OC)c(OC)cc4[C@@H]2C3=O)O1 [Rotenone, (2R,6aS,12a5)-1,2,6,6a,12,12a-hexahydro-2-isopropenyl-8,9-dimethoxychromeno[3,4-b]furo(2,3-h)chromen-6-one]	induced	induced		inhibited cellular proliferation	no toxicity	
CC(C)n1nc(-c2cc3cc(O)ccc3[nH]2)c2c(N)ncnc21 [pp242, 2-(4-amino-1-isopropyl-1H-pyrazolo[3,4-d]pyrimidin-3-yl)-1H-indol-5-ol]					no toxicity	induced
O=C1Nc2cc(Br)ccc2/C1=C1/Nc2ccccc2/C1=N\O [Bio, (2′Z,3′E)-6-Bromoindirubin-3′-oxime]	induced	induced			more toxic than the other compounds	
CC(C)C[C@@H](C=O)NC(=O)[C@H](CC(C)C)NC(=O)[C@H](CC(C)C)NC(=O)OCc1ccccc1 [MG132, Benzyl N-[(2S)-4-methyl-1-[[(2S)-4-methyl-1-[[(2S)-4-methyl-1-oxopentan-2-yl]amino]-1-oxopentan-2-yl]amino]-1-oxopentan-2-yl]carbamate] (Cbz-Leu-Leu-Leu-aldehyde)	induced	induced	no toxicity	inhibited cellular proliferation		
